# From paper PMC12800093 (Nature Communications, 2025)
# Where a SMILES comes first, the peptide text is derived from it. [ ]: non-standard residue; d: D form.
# Tested on: Mycobacterium tuberculosis complex (MTBC) clinical isolates
# Details: 96 h
structure (smiles),measurement,value
CC(C)[C@@H](NC(=O)[C@H](N)Cc1c[nH]c2ccccc12)C(=O)N[C@@H](C(=O)N[C@H](Cc1c[nH]c2ccccc12)C(=O)N[C@H](Cc1c[nH]cn1)C(=O)N[C@H](CCCNC(=N)N)C(=O)N[C@H](CCCNC(=N)N)C(=O)N[C@H](Cc1c[nH]c2ccccc12)C(=O)N[C@H](Cc1c[nH]c2ccccc12)C(=O)N[C@H](Cc1c[nH]cn1)C(=O)N[C@H](Cc1c[nH]c2ccccc12)C(=O)N[C@H](CCCNC(=N)N)C(=O)N[C@H](CCCCN)C(N)=O)C(C)C [MAD1-RI] (H-[dW][dV][dV][dW][dH][dR][dR][dW][dW][dH][dW][dR][dK]-NH2),MICs against a panel of drug-resistant clinical Mtb isolates,≤ 40 µM
